Assay results from patent US6589570B1, “Pharmaceutical formulation useful for the treatment of hepatitis B, hepatitis C and other viral infections of the liver and a process for its preparation” (priority 1999, dated 2003).

What was measured:
cultured rat hepatocytes = settings: cited from earlier work
isolated rat hepatocytes = test: Anti hepatotoxic potential, β-galactosamine challenged isolated rat hepatocytes; format: cell-based; settings: 0.5 mM
Protocol: The liver was perfused through the portal vein with 30-50 ml of cold sodium citrate (0.027M) in calcium free lockets solution. During the perfusion, the liver gets blanched and fully distended. Perfusion is generally completed within 5 minutes of anaesthetizing the animal. The perfused liver is excised and washed well with the perfusion fluid and pressed in folds of sterile filter paper, weighed and cut into several small pieces and with a pair of scissors. A known wet weight of the liver (usually between 2-6 gm) was transferred with 5 volume of cold 0.25M sucrose into a sterile glass homogenizer and finely grounded. The cell suspension was filtered once, without application of pressure through 200-mesh brass gauze to remove strands of connective tissue and clumps of cells. The suspension contained some cell debris and blood cells at this stage, which were removed by centrifugation at a low speed (100-200 g) for 2 minutes. After removal of the supernatant, the cell sediment was resuspended in a known volume of the minimum essential medium for further studies. […] The cells, which have not taken the dye, are live cells, which are counted. […] Four sets of isolated rat hepatocyte cultures were put up. […] Set III with 0.5 mM concentration of β-galactosamine, a known hepatotoxic agent and set IV was treated with β-galactosamine and then protected with the formulation of the present invention. […]

COC[C@@H]1Cc2cc(OC)c3c(c2[C@H](c2ccc(OC)c(OC)c2)[C@H]1COC)OCO3 [Hypo phyllanthin]
CCl4 or galatosamine induced cytotoxicity to cultured rat hepatocytes (cultured rat hepatocytes): reduced

COC[C@@H](Cc1ccc(OC)c(OC)c1)[C@@H](COC)Cc1ccc(OC)c(OC)c1 [Phyllanthin]
CCl4 or galatosamine induced cytotoxicity to cultured rat hepatocytes (cultured rat hepatocytes): reduced

N[C@@H]1[C@@H](O)[C@@H](O)[C@@H](CO)O[C@H]1O [β-galactosamine]
hepatotoxicity on isolated rat hepatocytes (isolated rat hepatocytes): profound hepatotoxic chemical
